The source of these data is patent US11142515B2, “Pyrazolyl-ureas as kinase inhibitors” (RESPIVERT LIMITED, priority 2014, dated 2021).

A value given as a limit tells only on which side of the number the result lay.

The target of one assay is T1, p38MAPKγ (MAPK12) (Homo sapiens, UniProt P53778).
T1 construct: purchased Life Technologies
T1 sequence (P53778 1-367): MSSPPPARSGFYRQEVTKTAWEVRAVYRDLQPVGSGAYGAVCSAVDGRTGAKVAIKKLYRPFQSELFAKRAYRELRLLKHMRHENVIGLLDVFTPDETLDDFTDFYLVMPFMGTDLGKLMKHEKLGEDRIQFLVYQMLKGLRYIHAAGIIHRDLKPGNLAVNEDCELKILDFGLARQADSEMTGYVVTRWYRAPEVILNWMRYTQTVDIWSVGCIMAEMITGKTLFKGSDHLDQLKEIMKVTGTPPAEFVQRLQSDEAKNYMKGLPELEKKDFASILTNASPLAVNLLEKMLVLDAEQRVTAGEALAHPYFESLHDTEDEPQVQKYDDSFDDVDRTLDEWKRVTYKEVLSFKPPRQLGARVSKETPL
In words: p38 MAPKγ enzyme inhibition (Z-LYTE FRET). The class given is biochemical. Particulars: Table 2B, unit inferred; read-out: p38 MAPKγ (Enzyme Profile). The procedure, abridged: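 Enzyme (added at 800 ng/mL) was preincubated 2 h at RT with compound (solutions of 40 to 0.0012 μg/mL), then FRET peptide (8 μM) and ATP (400 μM), both as added, were reacted 1 h at RT. Protease development followed for 1 h; phosphorylation was read as the coumarin/fluorescein emission ratio.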

For assay [1], the target named is T2, p38 MAPKα isoform (MAPK14) (Homo sapiens, UniProt Q16539).
T2 construct: purchased Life Technologies
T2 sequence (Q16539 whole entry, canonical isoform): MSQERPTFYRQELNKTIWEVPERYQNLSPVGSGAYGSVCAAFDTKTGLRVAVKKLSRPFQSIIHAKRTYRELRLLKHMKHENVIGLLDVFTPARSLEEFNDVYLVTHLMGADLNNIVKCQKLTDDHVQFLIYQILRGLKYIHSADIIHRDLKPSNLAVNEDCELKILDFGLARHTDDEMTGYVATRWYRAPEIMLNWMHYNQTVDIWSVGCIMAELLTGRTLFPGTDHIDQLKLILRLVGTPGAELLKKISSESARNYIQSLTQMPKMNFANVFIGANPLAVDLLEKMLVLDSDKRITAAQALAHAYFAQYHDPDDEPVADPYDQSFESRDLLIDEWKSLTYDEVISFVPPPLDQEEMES
In words: p38 MAPKα enzyme inhibition (Z-LYTE FRET). The format is biochemical. To be noted: Table 2B, unit inferred; read-out: p38 MAPKα (Enzyme Profile). The procedure, abridged:
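Activity was measured indirectly as phosphorylation of a MAPKAP-K2-derived FRET peptide. Enzyme (added at 40 ng/mL) was preincubated 2 h at RT with compound (added solutions 40–0.0012 μg/mL).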

For the compound `CCCc1cncc(Nc2cc(COc3ccc(NC(=O)Nc4cc(C(C)(C)C)nn4-c4cccc(OC)c4)c4ccccc34)ccn2)n1` [Example 189, 1-(3-(tert-butyl)-1-(3-methoxyphenyl)-1H-pyrazol-5-yl)-3-(4-((2-((6-propyl-pyrazin-2-yl)amino)pyridin-4-yl)methoxy)naphthalen-1-yl)urea], the IC50 on p38MAPKγ (MAPK12) stood at 579 nM; in assay [1], 72 nM.
On the same counts, the results for `COCc1cnc(Nc2cc(COc3ccc(NC(=O)Nc4cc(C(C)(C)C)nn4-c4ccc(C)cc4)c4ccccc34)ccn2)cn1` [Example 190, 1-(3-(tert-butyl)-1-(p-tolyl)-1H-pyrazol-5-yl)-3-(4-((2-((5-(methoxymethyl)pyrazin-2-yl)amino)pyridin-4-yl)methoxy)naphthalen-1-yl) urea] are 232 nM and 23 nM.
Turning to `CCNC(=O)c1cnc(Nc2cc(COc3ccc(NC(=O)Nc4cc(C(C)(C)C)nn4-c4ccc(C)cc4)c4ccccc34)ccn2)cn1` [Example 191, 5-((4-(((4-(3-(3-(tert-butyl)-1-(p-tolyl)-1H-pyrazol-5-yl)ureido)naphthalen-1-yl)oxy)methyl)pyridin-2-yl)amino)-N-ethylpyrazine-2-carboxamide], the IC50 is 460 nM at p38MAPKγ (MAPK12) and 47 nM in assay [1].
As to `CCCNC(=O)c1cnc(Nc2cc(COc3ccc(NC(=O)Nc4cc(C(C)(C)C)nn4-c4ccc(C)cc4)c4ccccc34)ccn2)cn1` [Example 192, 5-((4-(((4-(3-(3-(tert-butyl)-1-(p-tolyl)-1H-pyrazol-5-yl)ureido)naphthalen-1-yl)oxy)methyl)pyridin-2-yl)amino)-N-propylpyrazine-2-carboxamide], the IC50 at p38MAPKγ (MAPK12) is over 14600 nM; in assay [1], 46 nM.
Turning to `Cc1ccc(-n2nc(C(C)(C)C)cc2NC(=O)Nc2ccc(OCc3ccnc(Nc4cnc(C(=O)N5CC(F)C5)cn4)c3)c3ccccc23)cc1` [Example 193, 1-(3-(tert-butyl)-1-(p-tolyl)-1H-pyrazol-5-yl)-3-(4-((2-((5-(3-fluoroazetidine-1-carbonyl)pyrazin-2-yl)amino)pyridin-4-yl)methoxy)naphthalen-1-yl)urea], the IC50 at p38MAPKγ (MAPK12) was over 14300 nM; in assay [1] it was 89 nM.
On the same counts, the results for `CCCc1cncc(Nc2cc(COc3ccc(NC(=O)Nc4cc(C(C)(C)C)nn4-c4ccc(C)c(F)c4)c4ccccc34)ccn2)n1` [Example 194, 1-(3-(tert-butyl)-1-(3-fluoro-4-methylphenyl)-1H-pyrazol-5-yl)-3-(4-((2-((6-propyl-pyrazin-2-yl)amino)pyridin-4-yl)methoxy)naphthalen-1-yl)urea] are 8410 nM and 207 nM.
Consider `COCc1cnc(Nc2cc(COc3ccc(NC(=O)Nc4cc(C(C)(C)C)nn4-c4cccc(C)c4)c4ccccc34)ccn2)cn1` [Example 195, 1-(3-(tert-butyl)-1-(m-tolyl)-1H-pyrazol-5-yl)-3-(4-((2-((5-(methoxymethyl)pyrazin-2-yl)amino)pyridin-4-yl)methoxy)naphthalen-1-yl) urea], for which the IC50 was 245 nM at p38MAPKγ (MAPK12) and 15 nM in assay [1].
On the same counts, the results for `COc1cc(C)cc(-n2nc(C(C)(C)C)cc2NC(=O)Nc2ccc(OCc3ccnc(Nc4cnccn4)c3)c3ccccc23)c1` [Example 196, 1-(3-(tert-butyl)-1-(3-methoxy-5-methylphenyl)-1H-pyrazol-5-yl)-3-(4-((2-(pyrazin-2-ylamino)pyridin-4-yl)methoxy)naphthalen-1-yl)urea] are 219 nM and 29 nM.
On the same counts, the results for `CCOc1ccc(-n2nc(C(C)(C)C)cc2NC(=O)Nc2ccc(OCc3ccnc(Nc4cnccn4)c3)c3ccccc23)cc1C` [Example 197, 1-(3-(tert-butyl)-1-(4-ethoxy-3-methylphenyl)-1H-pyrazol-5-yl)-3-(4-((2-(pyrazin-2-ylamino)pyridin-4-yl)methoxy)naphthalen-1-yl)urea] are over 15600 nM and 37 nM.
With `Cc1ccc(-n2nc(C(C)(C)C)cc2NC(=O)Nc2ccc(OCc3ccnc(Nc4cnccn4)c3)c3ccccc23)cn1` [Example 198, 1-(3-(tert-butyl)-1-(6-methylpyridin-3-yl)-1H-pyrazol-5-yl)-3-(4-((2-(pyrazin-2-ylamino)pyridin-4-yl)methoxy)naphthalen-1-yl)urea], the IC50 at p38MAPKγ (MAPK12) was 111 nM; in assay [1], 10 nM.
On the same counts, the results for `CO[C@@H]1CCN(C(=O)c2cnc(Nc3cc(COc4ccc(NC(=O)Nc5cc(C(C)(C)C)nn5-c5cccc(C)c5)c5ccccc45)ccn3)cn2)C1` [Example 199, (R)-1-(3-(tert-butyl)-1-(m-tolyl)-1H-pyrazol-5-yl)-3-(4-((2-((5-(3-methoxy-pyrrolidine-1-carbonyl)pyrazin-2-yl)amino)pyridin-4-yl)methoxy)naphthalen-1-yl)urea] are over 13800 nM and 11 nM.
Take `CO[C@H]1CCN(C(=O)c2cnc(Nc3cc(COc4ccc(NC(=O)Nc5cc(C(C)(C)C)nn5-c5cccc(C)c5)c5ccccc45)ccn3)cn2)C1` [Example 200, (S)-1-(3-(tert-butyl)-1-(m-tolyl)-1H-pyrazol-5-yl)-3-(4-((2-((5-(3-methoxy-pyrrolidine-1-carbonyl)pyrazin-2-yl)amino)pyridin-4-yl)methoxy)naphthalen-1-yl)urea]: the IC50 on p38MAPKγ (MAPK12) worked out at 1240 nM; in assay [1], 13 nM.
Regarding `CCCc1cncc(Nc2cc(COc3ccc(NC(=O)Nc4cc(C(C)(C)C)nn4-c4cccc(C)c4)c4ccccc34)ccn2)n1` [Example 201, 1-(3-(tert-butyl)-1-(m-tolyl)-1H-pyrazol-5-yl)-3-(4-((2-((6-propylpyrazin-2-yl)amino)pyridin-4-yl)methoxy)naphthalen-1-yl)urea], the results for the IC50 (at p38MAPKγ (MAPK12); in assay [1]) were 7900 nM and 112 nM, respectively.
With `CC(C)(C)c1cc(NC(=O)Nc2ccc(OCc3ccnc(Nc4cnc(C(=O)N5CCCC5)cn4)c3)c3ccccc23)n(-c2cccc(F)c2)n1` [Example 202, 1-(3-(tert-butyl)-1-(3-fluorophenyl)-1H-pyrazol-5-yl)-3-(4-((2-((5-(pyrrolidine-1-carbonyl)pyrazin-2-yl)amino)pyridin-4-yl)methoxy)naphthalen-1-yl)urea], the results for the IC50 (on p38MAPKγ (MAPK12); in assay [1]) were 1130 nM and 19 nM, respectively.
For the compound `COCc1cnc(Nc2cc(COc3ccc(NC(=O)Nc4cc(C(C)(C)C)nn4-c4cccc(F)c4)c4ccccc34)ccn2)cn1` [Example 203, 1-(3-(tert-butyl)-1-(3-fluorophenyl)-1H-pyrazol-5-yl)-3-(4-((2-((5-(methoxymethyl)pyrazin-2-yl)amino)pyridin-4-yl)methoxy)naphthalen-1-yl) urea], the figures for the IC50 (on p38MAPKγ (MAPK12); in assay [1]) were 250 nM and 17 nM, respectively.
With `CNC(=O)c1cnc(Nc2cc(COc3ccc(NC(=O)Nc4cc(C(C)(C)C)nn4-c4cccc(C)c4)c4ccccc34)ccn2)cn1` [Example 204, 5-((4-(((4-(3-(3-(tert-butyl)-1-(m-tolyl)-1H-pyrazol-5-yl)ureido)naphthalen-1-yl)oxy)methyl)pyridin-2-yl)amino)-N-methylpyrazine-2-carboxamide], the IC50 on p38MAPKγ (MAPK12) was 330 nM; in assay [1] it was 16 nM.
In the case of `COCCN(C)C(=O)c1cnc(Nc2cc(COc3ccc(NC(=O)Nc4cc(C(C)(C)C)nn4-c4cccc(C)c4)c4ccccc34)ccn2)cn1` [Example 205, 5-((4-(((4-(3-(3-(tert-butyl)-1-(m-tolyl)-1H-pyrazol-5-yl)ureido)naphthalen-1-yl)oxy)methyl)pyridin-2-yl)amino)-N-(2-methoxyethyl)-N-methylpyrazine-2-carboxamide], the IC50 was found to be 263 nM on p38MAPKγ (MAPK12) and 13 nM in assay [1].
On the same counts, the results for `COC1CCN(C(=O)c2cnc(Nc3cc(COc4ccc(NC(=O)Nc5cc(C(C)(C)C)nn5-c5cccc(C)c5)c5ccccc45)ccn3)cn2)CC1` [Example 206, 1-(3-(tert-butyl)-1-(m-tolyl)-1H-pyrazol-5-yl)-3-(4-((2-((5-(4-methoxypiperidine-1-carbonyl)pyrazin-2-yl)amino)pyridin-4-yl)methoxy)naphthalen-1-yl)urea] are 517 nM and 22 nM.
On the same counts, the results for `COc1ccc(-n2nc(C(C)(C)C)cc2NC(=O)Nc2ccc(OCc3ccnc(Nc4cnc(C)c(C)n4)c3)c3ccccc23)cn1` [Example 207, 1-(3-(tert-butyl)-1-(6-methoxypyridin-3-yl)-1H-pyrazol-5-yl)-3-(4-((2-((5,6-dimethylpyrazin-2-yl)amino)pyridin-4-yl)methoxy)naphthalen-1-yl)urea] are 2390 nM and 30 nM.
On the same counts, the results for `COc1cc(-n2nc(C(C)(C)C)cc2NC(=O)Nc2ccc(OCc3ccnc(Nc4cnc(C)c(C)n4)c3)c3ccccc23)ccc1C` [Example 208, 1-(3-(tert-butyl)-1-(3-methoxy-4-methylphenyl)-1H-pyrazol-5-yl)-3-(4-((2-((5,6-dimethylpyrazin-2-yl)amino)pyridin-4-yl)methoxy)naphthalen-1-yl) urea] are over 15200 nM and 50 nM.
